Experimental data: ChEMBL document CHEMBL4312044, “Pharmacokinetics-Driven Optimization of 7-Methylimidazo[1,5-a]pyrazin-8(7H)-one as Novel BRD4 Inhibitors” (ACS Med Chem Lett, 2019)
Activity calls are given as the source filed them. The calls are words filed in the database; no cut-off is given here.

Columns and labels:
[1] = molecular target: T1, Bromodomain-containing protein 4 (Homo sapiens, UniProt O60885); test: Inhibition of BRD4 bromodomain2 (unknown origin) using peptide H4 as substrate incubated for 15 mins followed by substrate addition and measured after 1 hr by alphascreen assay
Raji = test: Antiproliferative activity against human Raji cells assessed as reduction in cell viability at 2 uM by MTT assay relative to control; type: functional; conditions: for inhibition at 2 µM: Homo sapiens, Raji
[2] = Metabolic stability in rat liver microsomes assessed as residue remaining at 10 uM incubated for 20 and 40 mins; type: ADME, Microsome; conditions: read-out: Stability
[3] = Metabolic stability in human liver microsomes assessed as residue remaining at 10 uM incubated for 20 and 40 mins; type: ADME, Microsome; conditions: read-out: Stability
[4] = molecular target: T1, Bromodomain-containing protein 4; test: Inhibition of BRD4 bromodomain1 (unknown origin) using peptide H4 as substrate incubated for 15 mins followed by substrate addition and measured after 1 hr by alphascreen assay
[5] = Metabolic stability in mouse liver microsomes assessed as residue remaining at 10 uM incubated for 20 and 40 mins; type: ADME, Microsome; conditions: read-out: Stability
HL-60 = test: Antiproliferative activity against human HL60 cells assessed as reduction in cell viability by MTT assay; type: functional, cell-based
BXPC-3 [6] = test: Antiproliferative activity against human BxPC3 cells assessed as reduction in cell viability at 2 uM by MTT assay relative to control; type: functional; conditions: for inhibition at 2 µM: Homo sapiens, BXPC-3
BXPC-3 [7] = test: Antitumor activity against human BxPC3 cells xenografted in BALB/c SCID mouse assessed as reduction in tumor growth inhibition at 5 mg/kg, ip measured on day 14 relative to control; type: functional; conditions: BXPC-3, ip, 336 h, read-out: TGI
[8] = Drug localization in nuclei of human BxPC3 cells at 2 uM incubated for 0.5 hrs by Hoechst 33342 staining based microscopic analysis; type: ADME, cell-based; conditions: bxpc-3, 0.5 h
BXPC-3 [9] = test: Antitumor activity against human BxPC3 cells xenografted in BALB/c SCID mouse assessed as reduction in tumor growth inhibition at 50 mg/kg, ip measured on day 14 relative to control; type: functional; conditions: BXPC-3, ip, 336 h, read-out: TGI
Mus musculus [10] = test: Down regulation of c-Myc in BALB/c SCID mouse xenogrfted with human BxPC3 cells at 50 mg/kg, ip measured on day 14 by immunohistochemical analysis; type: functional, organism-based
[11] = Toxicity in BALB/c SCID mouse assessed as reduction in body weight at 5 and 50 mg/kg, ip measured on day 14; type: organism-based; conditions: in vivo
BXPC-3 [12] = test: Antitumor activity against human BxPC3 cells xenografted in BALB/c SCID mouse assessed as suppression of cell proliferation at 50 mg/kg, ip measured on day 14 by Ki-67 staining based assay; type: functional, organism-based
BXPC-3 [13] = test: Inhibition of colony formation in human BxPC3 cells at 2 uM relative to control; type: functional
Mus musculus [14] = test: Upregulation of […] in BALB/c SCID mouse xenogrfted with human BxPC3 cells at 50 mg/kg, ip measured on day 14 by immunohistochemical analysis; type: functional, organism-based
BXPC-3 [15] = test: Antitumor activity against human BxPC3 cells xenografted in BALB/c SCID mouse assessed as reduction in tumor growth inhibition at 30 mg/kg, ip bid measured on day 14 relative to control; type: functional; conditions: BXPC-3, ip, 336 h, read-out: TGI

CCS(=O)(=O)Nc1ccc(Oc2cc(F)ccc2C)c(-c2cn(C)c(=O)c3cncn23)c1
IC50 [1]: 34 nM
inhibition at 2 µM (Raji): 33.8%
remaining at 40 min, 10 µM [2]: 7.6%
remaining at 40 min, 10 µM [3]: 13.2%
IC50 [4]: 22 nM
remaining at 40 min, 10 µM [5]: 11.2%
IC50 (HL-60): 440 nM
inhibition at 2 µM (BXPC-3 [6]): 2.9%

CCS(=O)(=O)Nc1ccc(Oc2cccc(-c3c(C)noc3C)c2)c(-c2cn(C)c(=O)c3cncn23)c1
IC50 [1]: 81 nM
inhibition at 2 µM (Raji): 19.7%
IC50 [4]: 92 nM
IC50 (HL-60): 530 nM
inhibition at 2 µM (BXPC-3 [6]): 25.1%

CCS(=O)(=O)Nc1ccc(Oc2ccc(F)cc2)c(-c2cn(C)c(=O)c3cncn23)c1
IC50 [1]: 29 nM
inhibition in vivo at 5 mg/kg (BXPC-3 [7]): 22%
Drug uptake [8]: Active
inhibition at 2 µM (Raji): 39.5%
inhibition in vivo at 50 mg/kg (BXPC-3 [9]): 65%
remaining at 40 min, 10 µM [2]: 76.2%
Activity (Mus musculus [10]): Active
Activity [11]: Non-Toxic
remaining at 40 min, 10 µM [3]: 95.2%
Activity (BXPC-3 [12]): Active
IC50 [4]: 30 nM
remaining at 40 min, 10 µM [5]: 65.6%
IC50 (HL-60): 45 nM
inhibition at 2 µM (BXPC-3 [6]): 38.4%
inhibition at 2 µM (BXPC-3 [13]): > 50%
Activity (Mus musculus [14]): Active

Cc1noc(C)c1-c1ccc(Oc2ccc(NS(C)(=O)=O)cc2-c2cn(C)c(=O)c3cncn23)cc1
IC50 [1]: 153 nM
inhibition at 2 µM (Raji): 23.7%
IC50 [4]: 141 nM
IC50 (HL-60): 1120 nM
inhibition at 2 µM (BXPC-3 [6]): 26.4%

CCS(=O)(=O)Nc1ccc(Oc2ccc(C(C)C)cc2)c(-c2cn(C)c(=O)c3cncn23)c1
IC50 [1]: 36 nM
inhibition at 2 µM (Raji): 50.4%
remaining at 40 min, 10 µM [2]: 3.9%
remaining at 40 min, 10 µM [3]: 13.1%
IC50 [4]: 49 nM
remaining at 40 min, 10 µM [5]: 17.2%
IC50 (HL-60): 110 nM
inhibition at 2 µM (BXPC-3 [6]): 35.4%

Cn1cc(-c2cc(NS(C)(=O)=O)ccc2Oc2ccc(Br)cc2)n2cncc2c1=O
IC50 [1]: 44 nM
inhibition at 2 µM (Raji): 33.1%
remaining at 40 min, 10 µM [2]: 54.2%
remaining at 40 min, 10 µM [3]: 66.7%
IC50 [4]: 37 nM
remaining at 40 min, 10 µM [5]: 61.2%
IC50 (HL-60): 230 nM
inhibition at 2 µM (BXPC-3 [6]): 34.8%

CCS(=O)(=O)Nc1ccc(Oc2cc(F)c(F)c(F)c2)c(-c2cn(C)c(=O)c3cncn23)c1
IC50 [1]: 140 nM
inhibition at 2 µM (Raji): 46%
remaining at 40 min, 10 µM [2]: 54.3%
remaining at 40 min, 10 µM [3]: 55.8%
IC50 [4]: 46 nM
remaining at 40 min, 10 µM [5]: 36%
IC50 (HL-60): 590 nM
inhibition at 2 µM (BXPC-3 [6]): 28.7%

O=c1[nH]cc(F)c(=O)[nH]1 [FLUOROURACIL]
inhibition in vivo at 30 mg/kg (BXPC-3 [15]): 67%

Cn1cc(-c2cc(NS(C)(=O)=O)ccc2Oc2ccc(F)cc2)n2cncc2c1=O
inhibition at 2 µM (Raji): 24.2%
remaining at 40 min, 10 µM [2]: 78%
remaining at 40 min, 10 µM [3]: 100%
IC50 [4]: 44 nM
remaining at 40 min, 10 µM [5]: 75.9%
IC50 (HL-60): 370 nM
inhibition at 2 µM (BXPC-3 [6]): 25.3%

CCS(=O)(=O)Nc1ccc(Oc2ccc(F)cc2F)c(-c2cn(C)c(=O)c3[nH]ccc23)c1 [MIVEBRESIB]
IC50 [1]: 47 nM
inhibition at 2 µM (Raji): 51.2%
remaining at 40 min, 10 µM [2]: 69%
remaining at 40 min, 10 µM [3]: 60.8%
IC50 [4]: 39 nM
remaining at 40 min, 10 µM [5]: 60.9%
IC50 (HL-60): 120 nM
inhibition at 2 µM (BXPC-3 [6]): 42.7%

CCS(=O)(=O)Nc1ccc(Oc2ccc(F)cc2F)c(-c2cn(C)c(=O)c3cncn23)c1
IC50 [1]: 25 nM
inhibition at 2 µM (Raji): 46.2%
remaining at 40 min, 10 µM [2]: 17.6%
remaining at 40 min, 10 µM [3]: 21.2%
IC50 [4]: 33 nM
remaining at 40 min, 10 µM [5]: 13.2%
IC50 (HL-60): 110 nM
inhibition at 2 µM (BXPC-3 [6]): 33.2%

Cc1sc2c(c1C)C(c1ccc(Cl)cc1)=N[C@@H](CC(=O)OC(C)(C)C)c1nnc(C)n1-2
inhibition (INH) (Raji): 47.9%
IC50 (HL-60): 870 nM
inhibition (INH) (BXPC-3 [6]): 31.1%

CCS(=O)(=O)Nc1ccc(Oc2ccc(-c3c(C)noc3C)cc2)c(-c2cn(C)c(=O)c3cncn23)c1
IC50 [1]: 50 nM
inhibition at 2 µM (Raji): 22.9%
remaining at 40 min, 10 µM [2]: 59.1%
remaining at 40 min, 10 µM [3]: 54.3%
IC50 [4]: 64 nM
remaining at 40 min, 10 µM [5]: 48.2%
IC50 (HL-60): 510 nM
inhibition at 2 µM (BXPC-3 [6]): 23.2%

CCS(=O)(=O)Nc1ccc(Oc2cc(C)ccc2F)c(-c2cn(C)c(=O)c3cncn23)c1
IC50 [1]: 21 nM
inhibition at 2 µM (Raji): 49.9%
remaining at 40 min, 10 µM [2]: 5.7%
remaining at 40 min, 10 µM [3]: 14.1%
IC50 [4]: 46 nM
remaining at 40 min, 10 µM [5]: 4.6%
IC50 (HL-60): 270 nM
inhibition at 2 µM (BXPC-3 [6]): 28.8%

Cc1noc(C)c1-c1cccc(Oc2ccc(NS(C)(=O)=O)cc2-c2cn(C)c(=O)c3cncn23)c1
IC50 [1]: 179 nM
inhibition at 2 µM (Raji): 28.9%
IC50 [4]: 162 nM
IC50 (HL-60): 1230 nM
inhibition at 2 µM (BXPC-3 [6]): 31.7%

Cn1cc(-c2cc(NS(C)(=O)=O)ccc2Oc2cccc(Br)c2)n2cncc2c1=O
IC50 [1]: 61 nM
inhibition at 2 µM (Raji): 29.4%
remaining at 40 min, 10 µM [2]: 34.9%
remaining at 40 min, 10 µM [3]: 45.9%
IC50 [4]: 57 nM
remaining at 40 min, 10 µM [5]: 67.2%
IC50 (HL-60): 450 nM
inhibition at 2 µM (BXPC-3 [6]): 36.1%
